Measured values reported in patent US20090069565A1, “NEW INDOLE DERIVATIVES AS FACTOR XA INHIBITORS” (priority 2001, published 2009).
Like-named read-outs stand apart in the source and are kept apart here.

Target: human factor Xa (Homo sapiens, UniProt P00742)
Experiment: Factor Xa assay (chromogenic, substrate S-2765);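 further: purified enzyme preincubated with inhibitor for 10 min before substrate addition, final reaction volume 100 µl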
Format: biochemical
[1] = inhibition constant for factor Xa, purified enzyme 0.5 nM, substrate S-2765 140 μM, 25° C., pH 7.8, Ki=IC50/{1+(substrate concentration/Km)}, read-out: Ki(FXa)

human factor Xa, sequence (P00742 235-488 limits assumed): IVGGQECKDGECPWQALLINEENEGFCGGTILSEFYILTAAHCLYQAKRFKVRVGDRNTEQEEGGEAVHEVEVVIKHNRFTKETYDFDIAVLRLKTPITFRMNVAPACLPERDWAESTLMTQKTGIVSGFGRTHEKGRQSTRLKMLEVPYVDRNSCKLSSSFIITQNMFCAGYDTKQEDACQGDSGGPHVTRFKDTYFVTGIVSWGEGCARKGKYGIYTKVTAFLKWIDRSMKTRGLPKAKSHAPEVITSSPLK
human factor Xa, sequence (P00742 41-179 partner limits assumed): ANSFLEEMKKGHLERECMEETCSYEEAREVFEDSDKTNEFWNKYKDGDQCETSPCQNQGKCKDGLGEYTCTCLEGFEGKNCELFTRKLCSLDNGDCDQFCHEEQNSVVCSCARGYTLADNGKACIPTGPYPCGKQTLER

SMILES	Ki (read-out: Ki(FXa)) [µM]	Ki [1] [µM]	other results
Cn1ccnc1CN1CCC(NC(=O)c2cc3ccccc3n2Cc2cc(-c3ccc(Cl)s3)on2)CC1 [Example 265, 1-[5-(5-chloro-thiophen-2-yl)-isoxazol-3-ylmethyl]-1H-indole-2-carboxylic acid [1-(1-methyl-1H-imidazol-2-ylmethyl)-piperidin-4-yl]-amide]	0.404		
O=C(NCC1CC(c2ccncc2)=NO1)c1cc2ccccc2n1Cc1cc(-c2ccc(Cl)s2)on1 (stereo not shown) [Example 41, 1-[5-(5-Chloro-thiophen-2-yl)-isoxazol-3-ylmethyl]-1H-indole-2-carboxylic acid (3-pyridin-4-yl-4,5-dihydro-isoxazol-5-ylmethyl)-amide]	1.03		
CC(C)N1CCC(NC(=O)c2cc3ccccc3n2Cc2cc(-c3ccc(Cl)cc3)no2)CC1 [Example 211, 1-[3-(4-Chloro-phenyl)-isoxazol-5-ylmethyl]-1H-indole-2-carboxylic acid (1-isopropyl-piperidin-4-yl)-amide]		0.4	
CC(C)N1CCC(NC(=O)c2cc3cccc([N+](=O)[O-])c3n2Cc2cc(-c3ccc(Cl)s3)on2)CC1 [Example 11]		0.0001	
COC(=O)c1ccc2c(c1)cc(C(=O)NC1CCN(C(C)C)CC1)n2Cc1cc(-c2ccc(Cl)s2)on1 [Example 239, 1-[5-(5-Chloro-thiophen-2-yl)-isoxazol-3-ylmethyl]-2-(1-isopropyl-piperidin-4-ylcarbamoyl)-1H-indole-5-carboxylic acid methyl ester]	0.005		
COc1ccc(OC)c2c1cc(C(=O)NC1CCN(C(C)C)CC1)n2Cc1cc(-c2ccc(Cl)s2)on1 [Example 179, 1-[5-(5-Chloro-thiophen-2-yl)-isoxazol-3-ylmethyl]-4,7-dimethoxy-1H-indole-2-carboxylic acid (1-isopropyl-piperidin-4-yl)-amide]	0.0055		
CCN1CCN(NC(=O)c2cc3ccccc3n2Cc2cc(-c3ccc(Cl)s3)on2)CC1 [Example 203, 1-[5-(5-Chloro-thiophen-2-yl)-isoxazol-3-ylmethyl]-1H-indole-2-carboxylic acid (4-ethyl-piperazin-1-yl)-amide]	0.028		
O=C(NC1CCN(c2ccncc2)CC1)c1cc2ccccc2n1Cc1cc(-c2ccc(Cl)s2)on1 [Example 28, 1-[5-(5-Chloro-thiophen-2-yl)-isoxazol-3-ylmethyl]-1H-indole-2-carboxylic acid (3,4,5,6-tetrahydro-2H-[1,4′]bipyridinyl-4-yl)-amide]		0.014	
CC(C)N1CCC(NC(=O)c2cc3cc([N+](=O)[O-])ccc3n2Cc2cc(-c3ccc(Cl)s3)on2)CC1 [Example 3]		0.001	
O=C(c1cc2cc([N+](=O)[O-])ccc2n1Cc1cc(-c2ccc(Cl)s2)on1)N(c1ccncc1)C1CCN(c2ccncc2)CC1 [Example 205, 1-[5-(5-Chloro-thiophen-2-yl)-isoxazol-3-ylmethyl]-5-nitro-1H-indole-2-carboxylic acid pyridin-4-yl-(3,4,5,6-tetrahydro-2H-[1,4′]bipyridinyl-4-yl)-amide]			Ki: 0.034 µM
O=C(NC1CCN(CCO)CC1)c1cc2ccccc2n1Cc1cc(-c2ccc(Cl)s2)on1 [Example 260, 1-[5-(5-chloro-thiophen-2-yl)-isoxazol-3-ylmethyl]-1H-indole-2-carboxylic acid [1-(2-hydroxy-ethyl)-piperidin-4-yl]-amide]		0.131	
CC(C)N1CCC(NC(=O)c2cc3cc(S(C)(=O)=O)ccc3n2Cc2cc(-c3ccc(Cl)s3)on2)CC1 [Example 2]		0.02	
CCOC(=O)CN(C(=O)c1cc2c(OC)ccc(OC)c2n1Cc1cc(-c2ccc(Cl)s2)on1)C1CCN(C(C)C)CC1 [Example 225, [{1-[5-(5-Chloro-thiophen-2-yl)-isoxazol-3-ylmethyl]-4,7-dimethoxy-1H-indole-2-carbonyl}-(1-isopropyl-piperidin-4-yl)-amino]-acetic acid ethyl ester]	0.026		
